Results: patent publication US20120190613A1, “ECHINOCANDIN DERIVATIVES” (priority 2009, published 2012)
≈ marks a conversion by molar mass, not a printed value. Marks after values point to notes of the source that are not given here.

What was measured:
[1] = tested on: C. albicans 104 ATCC 90028; assay: MIC by broth microdilution against C. albicans; format: cell-based; settings: 48 hr
Method: (§1) MIC values (μg/mL) of echinocandin class compounds of the invention against various Candida and Aspergillus species were obtained as follows. Test organisms were obtained from the American Type Culture Collection (Manassas, Va.). The isolates were maintained at −80 ° C., then thawed and sub-cultured one day prior to testing (seven days for Aspergillus strains).
(§2) The mouse serum was heat-inactivated for 30 minutes at 56° C., and filtered through a 0.2 μm low protein binding filter unit prior to use.
(§3) MIC values were determined using broth microdilution. The wells of the daughter plates ultimately contained 180 μL of RPMI-1640 medium with and without mouse serum, 10 μL of drug solution, and 10 μL of yeast or fungal inoculum.
(§4) Prior to susceptibility testing, fungal isolates were removed from frozen storage, thawed at room temperature, and subcultured to Potato Dextrose Agar. The Candida strains were incubated overnight at 35° C. and the Aspergillus strains for 7 days at 25° C. Yeast colonies were inoculated into sterile saline and adjusted to the turbidity of a 0.5 McFarland standard. Inoculums from Aspergillus strains were prepared by washing the surface of an agar slant with 1 mL of sterile saline containing 0.05% of Tween 20. The resulting colloidial suspensions were adjusted to an optical density of 0.09 to 0.11 at λ 625 nm.
(§5) Both the yeast and filamentous fungus suspensions were further diluted 1:100 in RPMI-1640 medium and dispensed into sterile reservoirs and used to inoculate the daughter plates. 10 μL of standardized inoculum was delivered into each well. This yielded a final cell concentration in the daughter plates of approximately 2.5×10^3 colony-forming units/mL. Plates were incubated at 35° C. for approximately 48 hr.
(§6) Following incubation, microplates were viewed from the bottom using a plate viewer.

[2] = tested on: C. parapsilosis 630 ATCC 90018; assay: MIC by broth microdilution against C. parapsilosis; format: cell-based; settings: 48 hr
Method: as §1, §2, §3, §4, §5, §6

A. flavus 626 ATCC 64025 = assay: MIC by broth microdilution against A. flavus; format: cell-based; settings: 48 hr, growth reduction of 50%
Method: as §1, §2, §3, §4, §5, §6

C. albicans R303 = assay: Mouse candidiasis infection model, C. albicans density in kidneys; format: in vivo, female CD-1 mice; settings: Second run, 5 mg/kg IP 2 hr after infection, kidneys at 24 hr
Method: The objective of these studies was to evaluate the efficacy of test compounds in the mouse candidiasis infection model.
The strain, C. albicans R303 was transferred from frozen storage onto Sabauroud dextrose agar (SDA) plates and grown for ˜24 hr at 35° C. The inoculum was prepared by transferring colonies from the plate to phosphate buffered saline (PBS) and the concentration adjusted to 10^6 CFU/mL with the aid of a spectrophotometer. The stock was diluted 1:9 to prepare the inoculum. Prior to each run the concentration was verified using the dilution plate count method.
The female CD-1 mice used in this study were obtained from Charles River Laboratories, Portage, MI. The animals were approximately seven-weeks-old at the start of the study and weighed about 16-26 g.
In one approach, mice were made neutropenic with IP injections of cyclophosphamide (150 mg/kg in 10 mL/kg) at 4 and 1 day before inoculation. Each animal was inoculated with the appropriate concentration by injecting 0.1 mL of inoculum into a tail vein. The test compounds were administered IP at 2 hr after infection.
The kidneys were collected from four mice in control group 1 (untreated) at 2 hr after infection, and from the remaining mice in the study at 24 hr after infection. Kidneys were removed aseptically from each mouse and were combined in a sterile tube. An aliquot (2 mL) of sterile PBS was added to each tube and the contents homogenized with a tissue homogenizer (Polytron 3100). Serial dilutions of the tissue homogenates were conducted and 0.1 mL aliquots were spread on SDA plates and the plates incubated at 35° C. overnight. The CFU/kidneys were determined from colony counts. Data were analyzed using one-way ANOVA with the Tukey-Kramer Multiple Comparisons Test (GraphPad InStat version 3.06, GraphPad Software, San Diego, Calif.).
Treatments were administered at 2 hr after infection with 2.1×10^5 CFU/mL of the organism. Data are the means of four mice.
Treatments were administered at 2 hr after infection with 6.4×10^5 CFU/mL of the organism. Data are the means of four mice.
Treatments were administered at 2 hr after infection with 3.8×10^5 CFU/mL of the organism. Data are the means of four mice.
Treatments were administered at 2 hr after infection with 3.8×10^5 CFU/rnL of the organism. Data are the means of four mice.

Compound	MIC ([1]; 0% mouse serum) [µg/mL]	MIC ([1]; 50% mouse serum) [µg/mL]	MIC ([2]; 0% mouse serum) [µg/mL]	MIC ([2]; 50% mouse serum) [µg/mL]	MIC (A. flavus 626 ATCC 64025; 0% mouse serum) [µg/mL]	MIC (A. flavus 626 ATCC 64025; 50% mouse serum) [µg/mL]	Difference from 24-hr control (C. albicans R303)	Mean log10 CFU/kidneys (±SD) (C. albicans R303) [log10 CFU/kidneys]
CCC(C)CC(C)CCCCCCCCC(=O)NC1CC(O)C(NCCNC(=O)CCCCCCCOCCOCCOCCOCCOCCOCCOCCOC)NC(=O)C2C(O)CCN2C(=O)C(C(O)CCN)NC(=O)C(C(O)C(O)c2ccc(O)cc2)NC(=O)C2CC(O)CN2C(=O)C(C(C)O)NC1=O (stereo not drawn) [Compound 3]	2 (≈ 1.28 µM)	>16	>16	>16	2 (≈ 1.28 µM)	8 (≈ 5.14 µM)		
CCCCCOc1ccc(-c2ccc(-c3ccc(C(=O)NC4CC(O)C(OCCOCCOCCOCCOCCOCCOCCOC)NC(=O)C5C(O)C(C)CN5C(=O)C(C(C)O)NC(=O)C(C(O)C(O)c5ccc(O)cc5)NC(=O)C5CC(O)CN5C(=O)C(C(C)O)NC4=O)cc3)cc2)cc1 (stereo not drawn) [Compound 6]	2 (≈ 1.37 µM)	8 (≈ 5.47 µM)	>16	>16	0.125 (≈ 0.0855 µM)	0.5 (≈ 0.342 µM)		
CCC(C)CC(C)CCCCCCCCC(=O)NC1CC(O)C(OCCOCCOCCOCCOC)NC(=O)C2C(O)CCN2C(=O)C(C(O)CC(N)=O)NC(=O)C(C(O)C(O)c2ccc(O)cc2)NC(=O)C2CC(O)CN2C(=O)C(C(C)O)NC1=O (stereo not drawn) [Compound 8]	8 (≈ 6.37 µM)	>16	>16	>16	0.5 (≈ 0.398 µM)	2 (≈ 1.59 µM)		
CCC(C)CC(C)CCCCCCCCC(=O)NC1CC(O)C(OCCOCCOCCOCCOCCOCCOCCOC)NC(=O)C2C(O)CCN2C(=O)C(C(O)CC(N)=O)NC(=O)C(C(O)C(O)c2ccc(O)cc2)NC(=O)C2CC(O)CN2C(=O)C(C(C)O)NC1=O (stereo not drawn) [Compound 9]	>16	>16	>16	>16	2 (≈ 1.44 µM)	8 (≈ 5.77 µM)		
CCC(C)CC(C)CCCCCCCCC(=O)NC1CC(O)C(NCCNC(=O)OCCOCCOCCOC)NC(=O)C2C(O)CCN2C(=O)C(C(O)CCN)NC(=O)C(C(O)C(O)c2ccc(O)cc2)NC(=O)C2CC(O)CN2C(=O)C(C(C)O)NC1=O (stereo not drawn) [Compound 12]							−0.78 ns log10 CFU/kidneys	4.42 ± 0.14
CCC(C)CC(C)CCCCCCCCC(=O)NC1CC(O)C(NCCNCCOC)NC(=O)C2C(O)CCN2C(=O)C(C(O)CCN)NC(=O)C(C(O)C(O)c2ccc(O)cc2)NC(=O)C2CC(O)CN2C(=O)C(C(C)O)NC1=O (stereo not drawn) [Compound 13]							−4.55*** log10 CFU/kidneys	0.65 ± 0.75
CCC(C)CC(C)CCCCCCCCC(=O)NC1CC(O)C(NCCN)NC(=O)C2C(O)CCN2C(=O)C(C(O)CCNC(=O)OCCOC)NC(=O)C(C(O)C(O)c2ccc(O)cc2)NC(=O)C2CC(O)CN2C(=O)C(C(C)O)NC1=O (stereo not drawn) [Compound 14]							−1.13 ns log10 CFU/kidneys	4.07 ± 0.17
